# ChEMBL document CHEMBL1124105, “Analogues of gamma-hydroxybutyric acid. Synthesis and binding studies” (J Med Chem, 1988)
# Active and inactive are the calls of the source. The rule behind the calls is not given here.
# Biological target: T1, Gamma-hydroxybutyrate receptor (Rattus norvegicus) (UniProt Q6RY99)
# T1 sequence (whole entry): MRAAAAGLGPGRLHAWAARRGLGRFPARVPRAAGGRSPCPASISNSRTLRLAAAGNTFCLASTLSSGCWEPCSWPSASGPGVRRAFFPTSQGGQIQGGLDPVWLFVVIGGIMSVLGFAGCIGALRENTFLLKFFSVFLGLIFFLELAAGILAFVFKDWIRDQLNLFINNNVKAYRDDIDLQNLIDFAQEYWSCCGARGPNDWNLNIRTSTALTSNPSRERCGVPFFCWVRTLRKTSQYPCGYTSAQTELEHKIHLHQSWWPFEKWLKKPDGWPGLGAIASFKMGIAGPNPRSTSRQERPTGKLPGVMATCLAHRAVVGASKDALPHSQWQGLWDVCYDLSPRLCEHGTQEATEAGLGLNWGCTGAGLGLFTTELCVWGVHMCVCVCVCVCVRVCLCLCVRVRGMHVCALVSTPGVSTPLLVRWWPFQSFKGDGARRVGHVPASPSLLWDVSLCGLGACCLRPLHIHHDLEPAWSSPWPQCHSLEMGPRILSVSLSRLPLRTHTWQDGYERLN
# Details: at 1 µM
row,SMILES,inhibition [%]
1,O=C(O)CCC(O)c1ccccc1 (configuration not stated),13
2,O=C(O)CCCCO,22
3,O=C(O)CCCO,35
4,O=C(O)/C=C/C(O)c1ccccc1 (configuration not stated),39
5,O=C(O)/C=C/CO,44
6,O=C(O)/C=C/C(O)C1CCCCC1 (configuration not stated),13
7,O=C(O)/C=C(/CO)c1ccccc1,21
8,CC(O)CCC(=O)O (configuration not stated),12
9,C/C(=C\C(=O)O)CO,11

# Biological target: T1, Gamma-hydroxybutyrate receptor (Rattus norvegicus)
# Details: at 10 µM
row,SMILES,inhibition [%]
1,O=C(O)CCC(O)c1ccccc1 (configuration not stated),56
2,CC(CO)CC(=O)O (configuration not stated),59
3,O=C(O)CCCCO,53
4,O=C(O)CCCO,55
5,O=C(O)/C=C/C(O)c1ccccc1 (configuration not stated),70
6,CCCC(CO)CC(=O)O (configuration not stated),5
7,O=C(O)/C=C/CO,64
8,O=C(O)/C=C/C(O)C1CCCCC1 (configuration not stated),46
9,O=C(O)/C=C(/CO)c1ccccc1,34
10,CC(O)CCC(=O)O (configuration not stated),63
11,CC(CCO)C(=O)O (configuration not stated),24
12,CCC(CO)CC(=O)O (configuration not stated),43
13,C/C(=C\C(=O)O)CO,55

# Biological target: T1, Gamma-hydroxybutyrate receptor (Rattus norvegicus)
# Details: at 10 µM
# Remark: another data set of the same source
row,SMILES,inhibition
1,O=C1CCCO1,inactive
2,NCCCC(=O)O,inactive
3,O=C1C=CCO1,inactive
4,O=S(=O)(O)CCCO,inactive
5,O=C(O)CC(CO)Cc1ccccc1 (configuration not stated),inactive
6,O=C(O)C(CCO)c1ccccc1 (configuration not stated),inactive
7,O=S(=O)([O-])CCO.[Na+],inactive
8,OCCCCO,inactive
9,CC(C)C(CO)CC(=O)O (configuration not stated),inactive
10,O=C(O)CC(CO)c1ccccc1 (configuration not stated),inactive
11,C=C(C)[C@@H]1[C@H]2OC(=O)[C@@H]1[C@]1(O)C[C@H]3OC34C(=O)O[C@H]2[C@@]41C.CC(C)(O)[C@@H]1[C@H]2OC(=O)[C@@H]1[C@]1(O)C[C@H]3OC34C(=O)O[C@H]2[C@@]41C (some centres not stated),inactive
12,O=C(O)CCO,inactive
13,O=S(=O)(O)CCCCO,inactive
14,C/C(=C\C(=O)O)CO,inactive
15,CC(CO)C(C)C(=O)O (configuration not stated),inactive
